# Test results reported in the Kinase Knowledgebase extract (Sharma et al. 2016).
# Biological target: PIK3CA (human) (UniProt P42336)
# Test: Assessment of PIK3CA Kinase Activity
# Chain of PIK3CA (human) (P42336 whole entry, looked up): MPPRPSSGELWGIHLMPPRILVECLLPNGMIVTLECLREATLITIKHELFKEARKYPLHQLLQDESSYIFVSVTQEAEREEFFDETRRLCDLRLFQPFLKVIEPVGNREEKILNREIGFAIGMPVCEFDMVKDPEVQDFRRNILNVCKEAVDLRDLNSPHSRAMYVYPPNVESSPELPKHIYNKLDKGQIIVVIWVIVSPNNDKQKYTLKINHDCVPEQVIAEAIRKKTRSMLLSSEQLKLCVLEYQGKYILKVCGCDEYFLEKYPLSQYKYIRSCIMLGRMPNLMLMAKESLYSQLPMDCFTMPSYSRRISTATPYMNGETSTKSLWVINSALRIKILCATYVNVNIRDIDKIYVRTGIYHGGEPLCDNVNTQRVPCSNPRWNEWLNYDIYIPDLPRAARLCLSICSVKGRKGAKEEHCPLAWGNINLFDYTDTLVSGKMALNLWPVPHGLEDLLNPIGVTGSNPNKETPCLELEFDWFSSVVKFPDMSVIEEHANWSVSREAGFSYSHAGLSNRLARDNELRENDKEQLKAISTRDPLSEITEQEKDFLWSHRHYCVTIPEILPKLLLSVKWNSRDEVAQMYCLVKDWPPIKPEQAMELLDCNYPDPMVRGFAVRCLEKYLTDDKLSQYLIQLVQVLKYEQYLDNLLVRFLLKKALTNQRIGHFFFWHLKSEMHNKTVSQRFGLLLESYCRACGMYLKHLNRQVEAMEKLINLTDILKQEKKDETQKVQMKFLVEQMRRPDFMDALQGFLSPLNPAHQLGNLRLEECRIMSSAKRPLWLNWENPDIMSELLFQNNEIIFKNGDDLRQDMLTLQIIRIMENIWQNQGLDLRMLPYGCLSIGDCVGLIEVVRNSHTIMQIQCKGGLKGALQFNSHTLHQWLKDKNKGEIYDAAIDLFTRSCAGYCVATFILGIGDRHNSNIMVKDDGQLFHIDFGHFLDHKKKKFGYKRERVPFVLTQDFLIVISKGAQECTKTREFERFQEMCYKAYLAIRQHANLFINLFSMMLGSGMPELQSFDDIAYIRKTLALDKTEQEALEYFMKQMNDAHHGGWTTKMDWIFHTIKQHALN
row,IC50 [nM],SMILES
1,495,CN(C)C1CCN(Cc2cc3nc(-c4c[nH]c5ccccc45)nc(N4CCOCC4)c3s2)CC1
2,1600,Cc1cc2cc(F)ccc2n1-c1nc(N2CCOCC2)c2sc(CN3CCC(N(C)C)CC3)cc2n1
3,814,CN(C)C1CCN(Cc2cc3nc(-n4ccc5cc(O)ccc54)nc(N4CCOCC4)c3s2)CC1
4,5390,COCc1cc2ccccc2n1-c1nc(N2CCOCC2)c2nc(CN3CCC(C(C)(C)O)CC3)n(C)c2n1
5,5300,Cn1c(CN2CCC(C(C)(C)O)CC2)nc2c(N3CCOCC3)nc(-n3c(C#N)cc4ccccc43)nc21
6,720,CN(C)[C@@H]1CCN(Cc2nc3c(N4CCOCC4)nc(-c4c[nH]c5ccccc45)nc3n2C)C[C@@H]1F
7,396,c1ccc2c(-c3nc(N4CCOCC4)c4nc(CN5CC(N6CCOCC6)C5)sc4n3)c[nH]c2c1
8,809,CC(C)(C(N)=O)N1CCN(Cc2cc3nc(-c4c(C#N)[nH]c5ccccc45)nc(N4CCOCC4)c3s2)CC1
9,529,CC(C)(OCCN1CCCC1)c1cc2nc(-c3c[nH]c4ccccc34)nc(N3CCOCC3)c2s1
10,707,CN(C)C1CCN(Cc2cc3nc(N4CCc5ccccc54)nc(N4CCOCC4)c3s2)CC1
11,5010,Cn1c(CN2CCC(N3CCOCC3)CC2)nc2c(N3CCOCC3)nc(-c3c[nH]c4ccccc34)nc21
12,1380,O=C1COC2(CCN(Cc3cc4nc(-c5c[nH]c6ccccc56)nc(N5CCOCC5)c4s3)CC2)CN1
13,562,CN(C)C1CCN(Cc2cc3nc(-n4ccc5ccccc54)nc(N4CCOCC4)c3s2)CC1
14,1330,CN(C)C1CCN(Cc2cc3nc(-c4c[nH]c5ccc(F)cc45)nc(N4CCOCC4)c3s2)CC1
